In patent US12043613B2, “Inhibitors of SARM1” (Disarm Therapeutics, Inc., priority 2020, dated 2024) one finds IC50 data, which are given here for 66 compounds.

As a reminder, the IC50 is the concentration that gives 50% inhibition. A high value points to a need for much substance.

The structures appear in SMILES notation.

The target of this assay is T1, SARM1 (ARM-SAM-TIR, full length SARM1) (Homo sapiens, UniProt Q6SZW1).
T1 sequence (Q6SZW1 with tags, fused parts or gaps): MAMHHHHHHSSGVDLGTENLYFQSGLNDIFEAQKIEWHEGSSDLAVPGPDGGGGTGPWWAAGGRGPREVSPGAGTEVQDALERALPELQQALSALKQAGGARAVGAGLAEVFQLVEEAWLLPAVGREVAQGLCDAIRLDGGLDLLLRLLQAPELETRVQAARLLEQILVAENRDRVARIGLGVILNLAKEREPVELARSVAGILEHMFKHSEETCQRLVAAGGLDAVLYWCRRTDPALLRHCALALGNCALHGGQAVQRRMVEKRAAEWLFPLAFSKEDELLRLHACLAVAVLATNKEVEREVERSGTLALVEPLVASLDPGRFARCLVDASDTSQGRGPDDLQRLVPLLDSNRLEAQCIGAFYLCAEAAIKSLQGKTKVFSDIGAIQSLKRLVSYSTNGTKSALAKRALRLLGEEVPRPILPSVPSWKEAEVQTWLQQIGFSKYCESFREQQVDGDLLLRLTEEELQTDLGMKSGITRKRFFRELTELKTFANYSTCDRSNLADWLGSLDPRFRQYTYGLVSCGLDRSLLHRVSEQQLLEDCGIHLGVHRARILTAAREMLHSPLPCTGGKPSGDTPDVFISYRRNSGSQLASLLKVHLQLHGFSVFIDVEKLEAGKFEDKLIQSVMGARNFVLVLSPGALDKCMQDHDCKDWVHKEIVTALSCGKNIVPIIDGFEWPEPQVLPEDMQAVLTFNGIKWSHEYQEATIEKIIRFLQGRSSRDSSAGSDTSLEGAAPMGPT
Put plainly: biochemical. As to conditions: SARM1 IC50 (nM), ARM-SAM-TIR lysate 5 μg/mL from NRK1-HEK293T cells, 2 h pre-incubation, 5 uM NAD+, 2 hr room temperature.
Protocol: This assay makes use of full length SARM1, which encompasses the ARM, SAM and TIR domains.
Preparation of ARM-SAM-TIR lysate (STL)
NRK1-HEK293T cells were seeded onto 150 cm^2 plates at 20×10^6 cells per plate. The next day, the cells were transfected with 15 g ARM-SAM-TIR expression plasmid, SEQ ID NO: 1.
The cultures were supplemented with 1 mM NR at time of transfection to minimize toxicity from ARM-SAM-TIR overexpression. Forty-eight hours after transfection, cells were harvested, pelleted by centrifugation at 1,000 rpm (Sorvall ST 16R centrifuge, Thermo Fisher), and washed once with cold PBS (0.01 M phosphate buffered saline NaCl 0.138 M; KCl 0.0027 M; pH 7.4). The cells were resuspended in PBS with protease inhibitors (cOmplete™ protease inhibitor cocktail, Roche product #11873580001) and cell lysates were prepared by sonication (Branson Sonifer 450, output=3, 20 episodes of stroke). The lysates were centrifuged (12,000×g for 10 min at 4° C.) to remove cell debris and the supernatants (containing ARM-SAM-TIR protein) were stored at −80° C. for later use in the in vitro ARM-SAM-TIR NADase assay (see below). Protein concentration was determined by the Bicinchoninic (BCA) method and used to normalize lysate concentrations.
ARM-SAM-TIR IC50 assay of Formula I compounds.
The enzymatic assay was performed in a 384-well polypropylene plate in Dulbecco's PBS buffer in a final assay volume of 20 μL. ARM-SAM-TIR lysate with a final concentration of 5 μg/mL was pre-incubated with the respective compound at 1% DMSO final assay concentration over 2h at room temperature. The reaction was initiated by addition of 5 uM final assay concentration of NAD+ as substrate. After a 2 hr room temperature incubation, the reaction was terminated with 40 μL of stop solution of 7.5% trichloroactetic acid in acetonitrile. The NAD+ and ADPR concentrations were analyzed by a RapidFire High Throughput Mass Spectrometry System (Agilent Technologies, Santa Clara, Calif.) using an API4000 triple quadrupole mass spectrometer (AB Sciex Framingham, Mass.).
In turn, `O=C1[C@@H](Cc2ccc(Cl)cc2)NCCN1c1cc(-c2ccncc2)n[nH]1` [Compound I-1-b] gave an IC50 greater than 1000 nM.
The value for `CN1CCN(c2cc(-c3ccncc3)n[nH]2)C(=O)[C@@H]1Cc1ccc(Cl)cc1` [Compound I-2-a] was greater than 1000 nM; that for `Cc1c(-c2ccncc2)n[nH]c1N1CCN[C@@H](Cc2ccc(Cl)cc2)C1=O` [Compound I-3-a] was greater than 1000 nM.
For `O=C1C(Cc2ccc(Cl)cc2)CCN1c1nnc(-c2ccncc2)[nH]1` (stereo not drawn) [Compound I-4], the IC50 is less than 50 nM.
Consider `O=C1C(Cc2ccc(Cl)cc2)CCCN1c1nnc(-c2ccncc2)[nH]1` (stereo not drawn) [Compound I-5], for which the IC50 is less than 50 nM.
The value for `Cc1c(N2CCC(Cc3ccc(Cl)cc3)C2=O)n[nH]c1-c1ccncc1` (stereo not drawn) [Compound I-6] was 51 to 100 nM; that for `O=C1C(Cc2ccc(F)cc2)CCN1c1nnc(-c2ccncc2)[nH]1` (stereo not drawn) [Compound I-7] was 101 to 500 nM.
The figure for `O=C1C(Cc2ccc(Cl)c(F)c2)CCN1c1nnc(-c2ccncc2)[nH]1` (stereo not drawn) [Compound I-8] is less than 50 nM; for `O=C1C(Cc2ccc(Cl)nc2)CCN1c1nnc(-c2ccncc2)[nH]1` (stereo not drawn) [Compound I-9] it is 101 to 500 nM.
The figure for `O=C1C(Cc2ccc(Cl)c(F)c2)CCCN1c1nnc(-c2ccncc2)[nH]1` (stereo not drawn) [Compound I-10] is less than 50 nM.
Regarding `O=C1C(Cc2ccc(F)c(F)c2)CCN1c1nnc(-c2ccncc2)[nH]1` (stereo not drawn) [Compound I-11], the half-inhibitory concentration (IC50) is less than 50 nM.
The compound `O=C1N(c2nnc(-c3ccncc3)[nH]2)CCC1(Cc1ccc(F)c(F)c1)Cc1ccc(F)c(F)c1` [Compound I-12] displayed an IC50 greater than 1000 nM.
In turn, `O=C1C(Cc2ccc(F)c(F)c2)CCCN1c1nnc(-c2ccncc2)[nH]1` (stereo not drawn) [Compound I-13] displayed an IC50 of less than 50 nM.
The value for `O=C1C(Cc2ccc(Cl)c(F)c2)CCN1c1cc(-c2ccncc2)n[nH]1` (stereo not drawn) [Compound I-14] was less than 50 nM; that for `O=C1C(Cc2ccc(Cl)cc2)CCN1c1cc(-c2ccncc2)n[nH]1` (stereo not drawn) [Compound I-15] was less than 50 nM.
The value for `O=C1C(Cc2ccc(F)c(F)c2)CCN1c1cc(-c2ccncc2)n[nH]1` (stereo not drawn) [Compound I-16] was less than 50 nM; that for `O=C1C(Cc2ccc(Cl)nc2)CCN1c1cc(-c2ccncc2)n[nH]1` (stereo not drawn) [Compound I-17] was less than 50 nM; that for `O=C1C(Cc2cnc(Cl)c(F)c2)CCN1c1nnc(-c2ccncc2)[nH]1` (stereo not drawn) [Compound I-18] was 51 to 100 nM.
The figure for `O=C1C(Cc2ccc(Cl)cc2)CCCN1c1cc(-c2ccncc2)n[nH]1` (stereo not drawn) [Compound I-19] is less than 50 nM; for `O=C1C(Cc2ccc(Cl)c(F)c2)CCCN1c1cc(-c2ccncc2)n[nH]1` (stereo not drawn) [Compound I-20] it is less than 50 nM.
On to `O=C1C(Cc2ccc(Cl)nc2)CCCN1c1cc(-c2ccncc2)n[nH]1` (stereo not drawn) [Compound I-21], for which the half-inhibitory concentration (IC50) was less than 50 nM.
With `O=C1C(Cc2ccc(F)c(F)c2)CCCN1c1cc(-c2ccncc2)n[nH]1` (stereo not drawn) [Compound I-22], the IC50 was less than 50 nM.
The value for `O=C1C(Cc2ccc(F)nc2)CCCN1c1nnc(-c2ccncc2)[nH]1` (stereo not drawn) [Compound I-23] was less than 50 nM.
The value for `O=C1C(Cc2cnc(Cl)c(F)c2)CCCN1c1nnc(-c2ccncc2)[nH]1` (stereo not drawn) [Compound I-24] was less than 50 nM.
The figure for `N#Cc1ccc(CC2CCN(c3[nH]nc(-c4ccncc4)c3F)C2=O)cc1F` (stereo not drawn) [Compound I-25] is 101 to 500 nM; for `N#Cc1ccc(CC2CCN(c3nnc(-c4ccncc4)[nH]3)C2=O)cc1F` (stereo not drawn) [Compound I-26] it is 101 to 500 nM; for `O=C1C(Cc2ccc(F)nc2)CCCN1c1[nH]nc(-c2ccncc2)c1F` (stereo not drawn) [Compound I-27] it is 101 to 500 nM.
The compound `O=C1C(Cc2ccc(F)nc2)CCCN1c1[nH]nc(-c2ccncc2)c1Cl` (stereo not drawn) [Compound I-28] gave an IC50 greater than 1000 nM.
The value for `O=C1C(Cc2ccc(Cl)nc2)CCCN1c1[nH]nc(-c2ccncc2)c1Cl` (stereo not drawn) [Compound I-29] was greater than 1000 nM; that for `O=C1C(Cc2ccc(Cl)nc2)CNN1c1cc(-c2ccncc2)n[nH]1` (stereo not drawn) [Compound I-30] was greater than 1000 nM; that for `O=C1C(Cc2ccc(Cl)nc2)CCCN1c1[nH]nc(-c2ccncc2)c1F` (stereo not drawn) [Compound I-31] was 101 to 500 nM.
Turning to `O=C1C(Cc2ccc(F)nc2)CCN1c1[nH]nc(-c2ccncc2)c1Cl` (stereo not drawn) [Compound I-32], the IC50 was less than 50 nM.
The value for `O=C1C(Cc2ccc(F)nc2)CCN1c1[nH]nc(-c2ccncc2)c1F` (stereo not drawn) [Compound I-33] was less than 50 nM; that for `O=C1C(Cc2ccc(Cl)nc2)CCN1c1[nH]nc(-c2ccncc2)c1Cl` (stereo not drawn) [Compound I-34] was less than 50 nM.
The compound `O=C1C(Cc2ccc(Cl)nc2)NCN1c1cc(-c2ccncc2)n[nH]1` (stereo not drawn) [Compound I-35] had an IC50 of 501 to 1000 nM.
The figure for `O=C1C(Cc2ccc(Cl)nc2)CCN1c1[nH]nc(-c2ccncc2)c1F` (stereo not drawn) [Compound I-36] is less than 50 nM; for `N#Cc1ccc(CC2CCN(c3cc(-c4ccncc4)n[nH]3)C2=O)cc1F` (stereo not drawn) [Compound I-37] it is 51 to 100 nM.
The value for `O=C1C(Cc2ccc(Cl)cc2)CNCCN1c1nc(-c2ccncc2)n[nH]1` (stereo not drawn) [Compound I-38] was 501 to 1000 nM; that for `O=C1C(Cc2ccc(F)nc2)CCN1c1nnc(-c2ccncc2)[nH]1` (stereo not drawn) [Compound I-39] was 101 to 500 nM; that for `O=C1C(Cc2ccc(Cl)nc2)CCCCN1c1cc(-c2ccncc2)n[nH]1` (stereo not drawn) [Compound I-40] was 101 to 500 nM.
The value for `Cc1c(-c2ccncc2)n[nH]c1N1CCC(Cc2cnc(Cl)c(F)c2)C1=O` (stereo not drawn) [Compound I-41] was 101 to 500 nM; that for `O=C1N(c2nc(-c3ccncc3)n[nH]2)CCC1(F)Cc1ccc(Cl)nc1` (stereo not drawn) [Compound I-42] was greater than 1000 nM.
For the compound `CC1(Cc2ccc(F)c(F)c2)CCN(c2nc(-c3ccncc3)n[nH]2)C1=O` (stereo not drawn) [Compound I-43], the half-inhibitory concentration (IC50) is greater than 1000 nM.
The compound `O=C1C(Cc2ccc(Cl)cc2)OCCN1c1nnc(-c2ccncc2)[nH]1` (stereo not drawn) [Compound I-44] displayed an IC50 of less than 50 nM.
On to `CC1(Cc2ccc(Cl)cc2)CCN(c2nc(-c3ccncc3)n[nH]2)C1=O` (stereo not drawn) [Compound I-45], for which the IC50 lay within 501 to 1000 nM.
The value for `O=C1C(Cc2ccc(Cl)cc2)OCCN1c1cc(-c2ccncc2)n[nH]1` (stereo not drawn) [Compound I-47] was 51 to 100 nM; that for `Cc1c(-c2ccncc2)n[nH]c1N1CCC(Cc2ccc(Cl)nc2)C1=O` (stereo not drawn) [Compound I-48] was 101 to 500 nM.
The figure for `Cc1c(-c2ccncc2)n[nH]c1N1CCC(Cc2ccc(F)c(F)c2)C1=O` (stereo not drawn) [Compound I-49] is 51 to 100 nM.
The value for `Cc1c(-c2ccncc2)n[nH]c1N1CCCC(Cc2ccc(Cl)cc2)C1=O` (stereo not drawn) [Compound I-50] was greater than 1000 nM; that for `N#Cc1c(-c2ccncc2)n[nH]c1N1CCC(Cc2ccc(Cl)nc2)C1=O` (stereo not drawn) [Compound I-51] was 51 to 100 nM; that for `N#Cc1c(-c2ccncc2)n[nH]c1N1CCC(Cc2ccc(Cl)cc2)C1=O` (stereo not drawn) [Compound I-52] was less than 50 nM.
As for `N#Cc1c(-c2ccncc2)n[nH]c1N1CCC(Cc2ccc(F)c(F)c2)C1=O` (stereo not drawn) [Compound I-53], the half-maximal inhibitory concentration (IC50) lay within 51 to 100 nM.
The compound `CC1(Cc2ccc(Cl)cc2)CCCN(c2nc(-c3ccncc3)n[nH]2)C1=O` (stereo not drawn) [Compound I-54] displayed a 50% inhibitory concentration (IC50) of 101 to 500 nM.
The value for `O=C1C(Cc2ccc(Cl)nc2)CCCN1c1nnc(-c2ccncc2)[nH]1` (stereo not drawn) [Compound I-55] was 51 to 100 nM; that for `N#Cc1c(-c2ccncc2)n[nH]c1N1CCCC(Cc2ccc(Cl)cc2)C1=O` (stereo not drawn) [Compound I-56] was 101 to 500 nM; that for `O=C1C(Cc2ccc(Cl)nc2)OCCN1c1nnc(-c2ccncc2)[nH]1` (stereo not drawn) [Compound I-58] was 101 to 500 nM.
The value for `O=C1C(Cc2ccc(Cl)cc2)NCN1c1cc(-c2ccncc2)n[nH]1` (stereo not drawn) [Compound I-59] was 101 to 500 nM; that for `N[C@H]1CC(Cc2ccc(Cl)nc2)C(=O)N(c2cc(-c3ccncc3)n[nH]2)C1` (stereo partly drawn) [Compound I-60] was 501 to 1000 nM.
The figure for `CC1(Cc2ccc(Cl)nc2)CCCN(c2nnc(-c3ccncc3)[nH]2)C1=O` (stereo not drawn) [Compound I-63] is 501 to 1000 nM; for `O=C1C(Cc2ccc(Cl)nc2)CNCN1c1cc(-c2ccncc2)n[nH]1` (stereo not drawn) [Compound I-64] it is greater than 1000 nM.
Take `O=C1C(Cc2cnc(Cl)c(F)c2)CCN1c1cc(-c2ccncc2)n[nH]1` (stereo not drawn) [Compound I-65]: the IC50 is less than 50 nM.
The value for `O=C1C(Cc2cnc(Cl)c(F)c2)CCCN1c1cc(-c2ccncc2)n[nH]1` (stereo not drawn) [Compound I-66] was less than 50 nM; that for `O=C1C(Cc2ccc(F)nc2)CCN1c1cc(-c2ccncc2)n[nH]1` (stereo not drawn) [Compound I-67] was less than 50 nM.
The figure for `N#Cc1c(-c2ccncc2)n[nH]c1N1CCCC(Cc2ccc(Cl)nc2)C1=O` (stereo not drawn) [Compound I-68] is 101 to 500 nM; for `[2H]C1(Cc2ccc(F)nc2)C(=O)N(c2cc(-c3ccncc3)n[nH]2)C([2H])([2H])C([2H])([2H])C1([2H])[2H]` (stereo not drawn) [Compound I-70] it is 51 to 100 nM; for `[2H]C([2H])(c1ccc(Cl)nc1)C1([2H])C(=O)N(c2cc(-c3ccncc3)n[nH]2)C([2H])([2H])C([2H])([2H])C1([2H])[2H]` (stereo not drawn) [Compound I-79] it is less than 50 nM.
